Assay results published in publication PMC4116177, “Rational Modification of Estrogen Receptor by Combination of Computational and Experimental Analysis” (PLoS ONE, 2014).

Columns and labels:
M421F-ERα ^LBD = target: T1, M421F-ERα ^LBD (Homo sapiens, UniProt P03372, M421F); test: PolarScreen competitive binding assay (fluorescence polarization) with M421F mutant
T1 construct: The polypeptide fragment 303-547 of the human ERα has been thus cloned; made in house; host or cells: E. coli Rosetta 2(DE3)pLysS
T1 sequence (P03372 303-547 M421F): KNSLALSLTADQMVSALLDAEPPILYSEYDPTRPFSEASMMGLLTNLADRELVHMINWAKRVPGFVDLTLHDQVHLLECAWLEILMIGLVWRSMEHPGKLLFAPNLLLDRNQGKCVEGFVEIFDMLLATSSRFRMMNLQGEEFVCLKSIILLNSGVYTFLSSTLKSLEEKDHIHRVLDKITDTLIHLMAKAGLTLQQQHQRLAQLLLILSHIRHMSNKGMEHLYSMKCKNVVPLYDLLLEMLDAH
Experimental: (§1) The PolarScreen assay was used to test the ligand binding affinity of wt-ERα ^LBD and its mutants towards different classes of estrogen disrupting compounds.
(§2) Each compound was tested in a range of 12 concentrations with the ER receptors (Figure 5). The compounds concentrations (X axis) were plotted in a logarithmic scale against the Polarization values (Y axis). The plot of compounds concentrations against Polarization were fitted with a one site competition […] logistic curve (see Materials and Methods for further details).
(§3) To test the binding affinity of the recombinant receptor for EDCs we used the competitive binding assay developed by Life Technologies for ERα, the PolarScreen Estrogen Receptor-α Competitor Green Assay.
(§4) The full length ERα provided with the kit was replaced by our recombinant ERα ^LBD. In short, wt or mutant ERα ^LBD are added to the Fluormone and incubated at 4°C for 45 minutes to form the receptor-Fluormone complex. This complex is then mixed and incubated at 25°C for 2 h with the individual EDCs and the intensity of the fluorescence polarization signal (directly proportional to the amount of Fluormone bound to the protein) measured. The addition of competitors displaces the Fluormone from the ERα ^LBD receptor, resulting in a decreased fluorescence signal. The fluorescence polarization anisotropy signal (P) is read using an Infinite 200 Pro multimode plate reader from Tecan and calculated with the following equation: [drawing 1]
The P data (y) were fitted against the competitor concentrations (x) with a typical one site competition three parameters logistic curve: [drawing 2]
LogIC50 = Log of the concentration of test compound required to reduce the maximum polarization value by 50%. All the resulting IC50 values are obtained by the average of at least four different experiments.

M421I-ERα ^LBD = target: T2, M421I-ERα ^LBD (Homo sapiens, UniProt P03372, M421I); test: PolarScreen competitive binding assay (fluorescence polarization) with M421I mutant
T2 construct: The polypeptide fragment 303-547 of the human ERα has been thus cloned; made in house; host or cells: E. coli Rosetta 2(DE3)pLysS
T2 sequence (P03372 303-547 M421I): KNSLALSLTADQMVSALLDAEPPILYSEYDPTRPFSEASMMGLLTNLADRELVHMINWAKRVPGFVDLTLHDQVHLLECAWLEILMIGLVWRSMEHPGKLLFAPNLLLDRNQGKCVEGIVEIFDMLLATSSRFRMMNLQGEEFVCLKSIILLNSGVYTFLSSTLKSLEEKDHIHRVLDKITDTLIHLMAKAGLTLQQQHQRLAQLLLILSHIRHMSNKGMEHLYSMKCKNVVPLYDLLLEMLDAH
Experimental: as §1, §2, §3
as §4, with “In short, wt or mutant ERα ^LBD are added to the Fluormone and incubated at 4°C for 45 minutes to form the receptor-Fluormone complex.” left out, “1] […]” for “1]”

wt-ERα ^LBD = target: T3, wt-ERα ^LBD (Homo sapiens, UniProt P03372); test: PolarScreen competitive binding assay (fluorescence polarization) with wt-ERα LBD
T3 construct: The polypeptide fragment 303-547 of the human ERα has been thus cloned; made in house; host or cells: E. coli Rosetta 2(DE3)pLysS
T3 sequence (P03372 303-547): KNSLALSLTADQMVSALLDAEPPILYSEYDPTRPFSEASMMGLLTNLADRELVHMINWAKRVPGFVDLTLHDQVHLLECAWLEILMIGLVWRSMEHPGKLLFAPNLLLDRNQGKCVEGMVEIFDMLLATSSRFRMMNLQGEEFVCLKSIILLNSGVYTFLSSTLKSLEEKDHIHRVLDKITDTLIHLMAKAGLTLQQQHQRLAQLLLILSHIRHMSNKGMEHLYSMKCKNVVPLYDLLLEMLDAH
Experimental: as §1, §2, §3
as §4, with “In short, wt or mutant ERα ^LBD are added to the Fluormone and incubated at 4°C for 45 minutes to form the receptor-Fluormone complex.” left out, “1] […]” for “1]”

[1] = Thermal unfolding followed by CD spectroscopy at 222 nm; assay type: physicochemical
Experimental: The thermal stability of the different ERs was assessed by following the protein thermal unfolding between 25 and 90°C with CD spectroscopy (Figures 3D, 3E and 3F). The unfolding process is not reversible: by cooling back the samples to 25°C only around 50% of the original secondary structure of the protein is recovered (data not shown). By fitting the experimental data with a Boltzmann-type equation it was possible to calculate melting temperature (Tm) values of 59.5±1.5°C, 65.8±1.4°C, and 61.5±1.3°C for the wt-ERα ^LBD, M421F-ERα ^LBD, and M421I-ERα ^LBD proteins, respectively.
Circular dichroism spectra were recorded with a J750 Circular dichroism spectrometer from Jasco interfaced with a Peltier temperature control unit with 1 mm path length cuvette. Analysis of the far-UV region (185–260 nm) was used to investigate the secondary structure and the folding of the protein. CD spectra were analyzed with the DichroWeb online software, by means of the CDSSTR program. Thermal denaturation experiments were performed by monitoring the circular dichroism at 222 nm while changing the temperature from 25 to 90°C (1°C/min) and backward. Reference spectra were collected for the buffers in which proteins were dissolved. Denaturation curves were analyzed assuming a two-state unfolding model and melting temperature (Tm) was calculated for every mutant. […]

Molecule: CC(C)(c1ccc(O)cc1)c1ccc(O)cc1 [Bisphenol-A]
- binds more strongly to M421F-ERα ^LBD than to wt-ERα ^LBD (M421F-ERα ^LBD; from IC50 values, M421F versus wt): approximately 6 times

Molecule: CCCCCCCCCc1ccc(O)cc1 [4-Nonylphenol]
- IC50 (M421I-ERα ^LBD): 60 ± 30 µM
- IC50 (wt-ERα ^LBD): 8 ± 1 µM
- IC50 (M421F-ERα ^LBD): 4 ± 2 µM
- IC50 of M421F-ERα ^LBD compared to wt-ERα ^LBD (in words) (M421F-ERα ^LBD; M421F versus wt): twice as strong

B1: wt-ERα ^LBD: recombinant His6-tagged polypeptide fragment 303-547 (ligand binding domain) of human ERα, wild type (protein, UniProt P03372 303-547, looked up, fragment)
chain: KNSLALSLTADQMVSALLDAEPPILYSEYDPTRPFSEASMMGLLTNLADRELVHMINWAKRVPGFVDLTLHDQVHLLECAWLEILMIGLVWRSMEHPGKLLFAPNLLLDRNQGKCVEGMVEIFDMLLATSSRFRMMNLQGEEFVCLKSIILLNSGVYTFLSSTLKSLEEKDHIHRVLDKITDTLIHLMAKAGLTLQQQHQRLAQLLLILSHIRHMSNKGMEHLYSMKCKNVVPLYDLLLEMLDAH
modifications: ligand binding domain His6 tag
- melting temperature (Tm) ([1]; CD at 222 nm, 25 to 90°C, Boltzmann-type fit): 59.5±1.5 °C
- melting temperature higher than that previously reported for the full-length ERα protein ([1]; versus full-length ERα): about 20 °C
